Consider one molecule from publication PMC12275099, “VX-445 (elexacaftor) inhibits chloride secretion across human bronchial epithelial cells by directly blocking KCa3.1 channels” (PNAS Nexus, 2025).

Values joined by “and” are separate entries in the source; they are usually repeats but may differ in a detail not shown here. Identical values can stand only once. Like-named read-outs stand apart in the source and are kept apart here.

For orientation: inhibition means the drop in the measured response relative to a control, in per cent.

One test deals with WT CFTR HBEs. Nature of the test: Ussing chamber Isc, DCEBIO-induced Cl- secretion. The class given is cell-based, human. The conditions noted are these: VX-445 10 µM. An excerpt: (§1) Primary human bronchial epithelial cells (HBEs) were collected from unused or discarded samples from the Center for Organ Recovery and Education via the University of Pittsburgh Pulmonary, Allergy, Critical Care, and Sleep Medicine Lung Biobank and Repository. All experimental procedures involving the use of HBEs were approved by the institutional review board (IRB STUDY19090084) and the Committee for Oversight of Research and Clinical Training Involving Decedents (CORID number 451) at the University of Pittsburgh. At all times, authors were blind to the identity of HBE donors. HBEs were cultured using the Vertex method ([72]). Studies were carried out on WT CFTR HBEs from 11 ([13]) donors and homozygous F508del/F508del CFTR HBEs from five ([5]) separate donors. HBEs were plated on Costar Transwell permeable supports ([…], 6.5 mm insert, polyester membrane, Corning) and grown at an air–liquid interface for 5+ weeks in HBE differentiation medium containing 2% Ultroser-G. Basolateral media were replaced three times per week. For whole-cell patch-clamp studies, HBEs were maintained in BronchiaLife airway media (LifeLine Cell Technology, LS-1047) and plated onto poly-L-lysine-coated coverslips (see below).
(§2) Costar Transwell inserts were mounted in a modified Ussing chamber (P2300, Physiologic Instruments) and the monolayers continuously short-circuited (VCC MC8, Physiologic Instruments) by forcing the transepithelial voltage to 0 mV. Short-circuit current (Isc) measurements were taken in symmetric solutions, containing (in mM): 120 NaCl, 25 NaHCO3, 3.3 KH2PO4, 0.8 K2HPO4, 1.2 CaCl2, 1.2 MgCl2, and 10 glucose. The pH of the solution is 7.4 when gassed with 95% O2–5% CO2 at 37°C. Compounds were added cumulatively following the establishment of a new stable current response. Amiloride was added to the apical membrane, while all other compounds were added to both membranes due to their lipophilic nature. In all experiments, 10 µM amiloride was used to inhibit sodium absorption. Percent inhibition was calculated as the change in Isc (ΔIsc) between the forskolin or DCEBIO stable current level and the Isc following addition of the compound being assessed divided by the ΔIsc between the stable forskolin- or DCEBIO-induced Isc and the Isc following bumetanide addition.

Test [1] has as its system primary WT CFTR-expressing HBEs. Nature of the test: Ussing chamber Isc, forskolin-stimulated Cl- secretion. The class given is cell-based, human. The conditions noted are these: for Isc in the presence of VX-445: single filters.
Description: as §1, §2

Another test has as its target KCa2.3 (Homo sapiens, UniProt Q9UGI6). Nature of the test: Excised inside-out patch-clamp on HEK cells expressing KCa2.3. The class given is biochemical. The conditions noted are these: 10 µM; 1 µM free Ca2+; n = 4; VX-659 added subsequent to VX-445; read-out: inhibition of KCa2.3 currents. How it is done: As above, we performed excised patch-clamp recordings on HEK cells heterologously expressing KCa2.3 or KCa2.2, in order to assess the activity of C2 CFTR corrector compounds. […] In contrast, the subsequent addition of 10 µM VX-659 yielded an almost complete inhibition of KCa2.3 currents, averaging 91 ± 3% (n = 4).
HEK cells stably expressing KCa3.1 (IK1, SK4), KCa2.3 (SK3), and KCa2.2 (SK2) were generated and cultured as previously described by us ([37], [66–71]).
HEK cells expressing the channel of interest were plated onto poly-L-lysine-coated glass coverslips 1–2 days prior to patch-clamp analysis. Electrophysiological recordings in the excised, inside-out, and whole-cell patch-clamp configurations were performed as recently described ([14]). For excised patch-clamp recordings, the pipette solution contained (in mM): 140 K-gluconate, 5 KCl, 1 CaCl2, 1 MgCl2, and 10 HEPES. The pH was adjusted to 7.2 with KOH. The bath solution contained (in mM): 145 K-gluconate, 5 KCl, 1.3 MgCl2, 10 HEPES, and 1 EGTA. Sufficient CaCl2 was added to obtain the desired free Ca^2+ concentration at a pH of 7.2 (adjusted with KOH). When recording KCa3.1 channels, ATP (300 µM) was added to the bath to diminish channel rundown ([73]). All recordings were carried out at a voltage of −100 mV, referenced to the extracellular compartment, as is standard. The apparent Ki and Hill coefficient for each CFTR corrector on KCa3.1, KCa2.3, and KCa2.2 were determined during a continuous recording by step-wise addition of increasing concentrations of compound and fitting the resultant relative remaining current to a Hill equation (Prism v. 10.1.0). The zero current level was determined by the addition of a 0 Ca^2+ solution (zero-added Ca^2+ plus 1 mM EGTA) at the end of the experiment. […] Current–voltage relationships were determined by stepping from a holding potential of −80 mV to +80 mV in 20 mV increments for 400 ms. The middle 300 ms of each trace was selected to avoid any influence of capacitive transients, and average currents were calculated for each voltage via the I–V tool in Clampfit. […]
On the technique in general: In patch-clamp work, channel activity is measured electrically.

Chain of KCa2.3 (Q9UGI6 whole entry): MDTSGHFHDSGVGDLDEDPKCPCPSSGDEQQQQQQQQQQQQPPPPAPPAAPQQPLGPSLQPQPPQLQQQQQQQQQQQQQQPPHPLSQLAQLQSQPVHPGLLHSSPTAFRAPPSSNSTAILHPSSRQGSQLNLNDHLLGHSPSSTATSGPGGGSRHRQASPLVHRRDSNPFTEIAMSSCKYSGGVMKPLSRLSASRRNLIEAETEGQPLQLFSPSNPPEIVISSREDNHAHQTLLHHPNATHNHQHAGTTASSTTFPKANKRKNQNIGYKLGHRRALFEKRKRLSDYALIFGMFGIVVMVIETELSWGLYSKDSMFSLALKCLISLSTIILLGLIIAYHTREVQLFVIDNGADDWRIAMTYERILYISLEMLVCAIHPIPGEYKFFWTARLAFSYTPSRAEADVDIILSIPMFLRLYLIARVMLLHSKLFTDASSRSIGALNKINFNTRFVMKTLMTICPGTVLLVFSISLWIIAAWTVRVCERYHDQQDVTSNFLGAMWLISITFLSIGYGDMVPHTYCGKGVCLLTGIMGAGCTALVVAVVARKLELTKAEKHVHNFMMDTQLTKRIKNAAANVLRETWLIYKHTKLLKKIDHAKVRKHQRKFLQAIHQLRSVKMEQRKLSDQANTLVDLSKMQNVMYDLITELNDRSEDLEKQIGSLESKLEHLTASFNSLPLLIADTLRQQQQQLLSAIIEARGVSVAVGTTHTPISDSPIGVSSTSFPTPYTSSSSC

As for `Cc1nn(C)cc1S(=O)(=O)NC(=O)c1ccc(-n2ccc(OCC(C)(C)C(F)(F)F)n2)nc1N1C[C@@H](C)CC1(C)C` [VX-445, elexacaftor], the inhibition at 10 µM in the test with WT CFTR HBEs (Homo sapiens, four donors, n = 12 (TRAM-34 series), read-out: inhibition of the DCEBIO-induced current) came out at 69 ± 3%; in test [1] (Homo sapiens, VX-445 10 µM after VX-661 10 µM, nine filters from three donors, read-out: inhibition of forskolin-stimulated current subsequent to VX-661), 47 ± 2%; in test [1] (Homo sapiens, VX-445 10 µM, four donors, n = 13 (TRAM-34 series), read-out: inhibition of the forskolin-stimulated current), 56 ± 2%; in test [1] (Homo sapiens, VX-445 10 µM, 16 experiments from three donors (paxilline series), read-out: inhibition of the forskolin-stimulated Isc), 45 ± 2%; at KCa2.3, 15 ± 5%. Also, the “decrease of the DCEBIO-induced Cl- current” value with WT CFTR HBEs (n = 19) is given as 54 ± 2%. Further, the “percent inhibition of forskolin-stimulated Isc from control” value in test [1] (5 µM VX-445, Fig 1D) is reported as 33%. The “Isc in the presence of VX-445” value in test [1] (Fig 1F, VX-445 10 µM after forskolin and bumetanide) was 21 and 18 and 15 and 14 and 16 and 19 and 27 and 20; in test [1] (Fig 2B, VX-445 10 µM after forskolin), 12 and 11 and 16 and 20 and 15 and 21 and 19 and 14. For the same molecule, in test [1] (Homo sapiens, 1 µM VX-445, Fig 1D, read-out: percent inhibition of forskolin-stimulated Isc from control), the inhibition at 1 µM is 0%. Besides, the “decrease of the forskolin-induced Cl- current” value in test [1] (VX-445 10 µM, 35 filters from five donors) is listed as 47 ± 2%. In test [1] (applied after forskolin and bumetanide, VX-445 10 µM, acetazolamide 1 µM), the “effect on the bumetanide-insensitive current” value is listed as “had no effect”.
